Consider four compounds from publication PMC7764916, “The Cholinesterase Inhibitory Properties of Stephaniae Tetrandrae Radix” (Molecules, 2020).

The target of experiment [1] is T1, BChE (Mus musculus, UniProt Q03311).
T1 construct: the brain lysate and iso-OMPA were replaced with diluted serum solution and 0.1 μM BW284c51; from tissue; host or cells: mouse serum (diluted 1:50)
As to the kind of experiment: BChE activity assay (Ellman method), mouse serum. It counts as biochemical. The settings on record: for IC50: alkaloids, Figure 3B; for BChE inhibitory activity (in words): Figure 3. As for the experimental part: Mouse serum (1: 50 v/v, diluted with precooled low-salt lysis buffer) was prepared for the BChE activity assay. The BChE assay medium consisted of the same composition as the AChE assay medium, except that the brain lysate and iso-OMPA were replaced with diluted serum solution and 0.1 μM BW284c51. The mixture of diluted serum, Na2HPO4 buffer, and BW284c51 solution was incubated at 37 °C for 10 min, and then the solutions of DNTB and ATCh were added. […] The concentration of DMSO in the reaction system of AChE/BChE assay was controlled at 0.5%. […] The AChE/BChE inhibitory activity of drugs was calculated as a percentage of the control absorbance value, AChE/BChE inhibition (%) = (1 − absorbance with inhibitor/absorbance without inhibitor) × 100%. […] The protein concentrations were measured using the Bio-Rad Protein Assay kit (Hercules, CA, USA).

Experiment [2] has as its target T2, AChE (Mus musculus, UniProt P21836).
T2 construct: The AChE assay medium consisted of brain lysate (5 mg/mL) with testing drugs; from tissue; host or cells: mouse brain (Triton X-100 low-salt lysate)
T2 sequence (P21836 32-614): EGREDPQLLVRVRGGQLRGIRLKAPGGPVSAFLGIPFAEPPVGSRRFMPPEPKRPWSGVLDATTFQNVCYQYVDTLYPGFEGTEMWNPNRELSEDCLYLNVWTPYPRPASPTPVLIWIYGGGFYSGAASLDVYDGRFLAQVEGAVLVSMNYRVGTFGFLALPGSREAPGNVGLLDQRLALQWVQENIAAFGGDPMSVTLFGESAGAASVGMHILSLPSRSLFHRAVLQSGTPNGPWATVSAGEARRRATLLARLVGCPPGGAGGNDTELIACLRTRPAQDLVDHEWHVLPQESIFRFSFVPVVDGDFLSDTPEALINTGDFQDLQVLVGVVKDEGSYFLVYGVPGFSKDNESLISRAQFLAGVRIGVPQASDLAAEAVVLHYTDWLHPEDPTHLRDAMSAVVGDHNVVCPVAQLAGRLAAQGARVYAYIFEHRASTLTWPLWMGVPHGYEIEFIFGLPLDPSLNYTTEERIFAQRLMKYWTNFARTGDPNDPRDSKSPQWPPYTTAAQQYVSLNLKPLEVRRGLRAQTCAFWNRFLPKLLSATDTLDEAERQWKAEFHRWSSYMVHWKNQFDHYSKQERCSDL
The experiment can be described thus: Enzyme kinetic analysis of AChE inhibition (Lineweaver–Burk plots). It counts as biochemical. The settings on record: for type of AChE inhibition: Lineweaver–Burk plots; for Ki: estimated from Lineweaver–Burk plots, ATCh 0.040–0.625 mM. On the procedure:
Figure 4 The enzyme kinetic analysis of AChE inhibition by fangchinoline and cyclanoline. Different doses of fangchinoline (0.5–5 μM) and cyclanoline (30–120 μM) were added to the AChE reaction system and preincubated at 37 °C with the brain lysate, followed by the addition of a range of doses of ATCh (0.040–0.625 mM). The inhibition constants Ki were estimated from the plots of the slope versus the concentration of tested drugs. Donepezil (25 nM) served as a positive control. The data are expressed as the mean ± SEM (standard error of mean) of three […] assays, each with triplicate samples.
The Michaelis constant (Km), maximum velocity (Vmax), and inhibitory constant (Ki) were used to evaluate the kinetics of fangchinoline and cyclanoline. Lineweaver–Burk plots were then plotted using initial velocities, from which the Km and Vmax values were calculated (the absolute values of horizontal and vertical intercepts were 1/Km and 1/Vmax, respectively). The slopes of reciprocal plots were then plotted against the doses of fangchinoline and cyclanoline, and Ki values were determined as the absolute value of the x-axis intercept. Donepezil was used as a positive control. All experiments were performed in triplicate.

Experiment [3] deals with T2, AChE. As to the kind of experiment: biochemical. As for the experimental part:
The extracts and alkaloids of STR were tested for cholinesterase activity using a 96-well microtiter plate (Corning, NY, USA) with a final volume of 200 μL, according to the Ellman method. […] The mixture of brain lysate, Na2HPO4 buffer, and iso-OMPA solution was incubated at 37 °C for 10 min, and then the solutions of DNTB and ATCh were added.
Mouse serum (1: 50 v/v, diluted with precooled low-salt lysis buffer) was prepared for the BChE activity assay. The BChE assay medium consisted of the same composition as the AChE assay medium, except that the brain lysate and iso-OMPA were replaced with diluted serum solution and 0.1 μM BW284c51. The mixture of diluted serum, Na2HPO4 buffer, and BW284c51 solution was incubated at 37 °C for 10 min, and then the solutions of DNTB and ATCh were added. […] The concentration of DMSO in the reaction system of AChE/BChE assay was controlled at 0.5%. […] The protein concentrations were measured using the Bio-Rad Protein Assay kit (Hercules, CA, USA).

The mark [4] stands for this setting: alkaloids, Figure 3B, read-out: AChE IC50.

SMILES strings stand for the structures. Where two headings read alike, the source gives them in different places.

T1 sequence (Q03311 30-603): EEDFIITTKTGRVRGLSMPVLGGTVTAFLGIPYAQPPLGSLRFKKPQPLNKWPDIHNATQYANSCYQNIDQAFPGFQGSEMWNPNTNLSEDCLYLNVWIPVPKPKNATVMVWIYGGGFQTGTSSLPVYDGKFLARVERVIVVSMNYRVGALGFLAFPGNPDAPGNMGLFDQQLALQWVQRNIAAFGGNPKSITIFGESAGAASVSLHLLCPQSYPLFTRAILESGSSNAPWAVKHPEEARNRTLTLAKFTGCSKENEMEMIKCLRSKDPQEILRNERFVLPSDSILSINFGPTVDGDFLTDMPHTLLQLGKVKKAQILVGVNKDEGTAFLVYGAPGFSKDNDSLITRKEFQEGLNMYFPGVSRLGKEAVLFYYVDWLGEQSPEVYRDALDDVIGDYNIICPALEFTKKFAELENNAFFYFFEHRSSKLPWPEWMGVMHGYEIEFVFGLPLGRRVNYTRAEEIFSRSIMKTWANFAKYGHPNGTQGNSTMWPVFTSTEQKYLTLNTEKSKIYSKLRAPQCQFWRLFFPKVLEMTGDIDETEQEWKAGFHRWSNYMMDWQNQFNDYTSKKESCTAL

In experiment [1], `COc1ccc2c3c1O[C@H]1C[C@@H](O)C=C[C@@]31CCN(C)C2` [Galanthamine, galanthamine, reference compound] came in with an IC50 of 49.8 ± 2.5 µM.
For `COc1cc2c(cc1O)[C@@H]1Cc3ccc(OC)c(O)c3C[N@+]1(C)CC2` [cyclanoline], in experiment [2], the “type of AChE inhibition” value was “noncompetitive” and the Ki was 72.3 µM. The same compound displayed an IC50 in experiment [1] of 247 ± 5.46 µM. Also, the IC50 in experiment [3] (setting [4]) came out at 106 ± 2.29 µM.
Turning to `COc1ccc2cc1Oc1ccc(cc1)C[C@H]1c3cc(c(OC)cc3CCN1C)Oc1c(O)c(OC)cc3c1[C@H](C2)N(C)CC3` [fangchinoline], the “type of AChE inhibition” value in experiment [2] was “noncompetitive”. In addition, in experiment [2], the Ki is 1.79 µM. The “BChE inhibitory activity (in words)” value in experiment [1] is given as “no inhibitory activity on BChE”. The half-maximal inhibitory concentration (IC50) turned out to be 2.12 ± 0.16 µM in experiment [3] (Figure 5A, ATCh 0.625 mM, read-out: AChE IC50 (single drug, synergy experiment)) and 2.58 ± 0.28 µM in experiment [3] (setting [4]).
On to `COc1ccc2cc1Oc1ccc(cc1)C[C@H]1c3cc(c(OC)cc3CCN1C)Oc1c(OC)c(OC)cc3c1[C@H](C2)N(C)CC3` [tetrandrine], for which, in experiment [1], the “BChE inhibitory activity (in words)” value was “no or little inhibitory activity on BChE”. Further, the “AChE inhibitory activity (in words)” value in experiment [3] (Figure 3) is reported as “no inhibitory activity on AChE at the maximal dissolvable concentration”.
